Experiment [1] deals with strain deleted for the papR gene. Description: Transformation assay: peptide added to culture of papR-deleted strain in CDM. The settings on record: for Competence: peptide stimulates competence, YES/NO. The experiment is classed as cell-based, S. thermophilus. How it is done: (§1) S. thermophilus cells are grown overnight at 42° C. in CDM. The culture is then diluted in CDM at an OD600 0.05. Sixty minutes after dilution, the competence stimulating peptide (CSP), which is the mature peptide comprising SEQ ID No1 or fragments or derivatives of SEQ ID No1 that allow to induce competence in S. thermophilus, is added to the culture at a final concentration of 1 μM. Ten minutes later, 100 μl of the culture containing the CSP is mixed with 1 μg of DNA and incubated for 2 hours at 28° C. when mixed with a thermosensitive replicative plasmid DNA or 1 hour at 42° C. when mixed with chromosomal DNA or PCR fragments, before being serially diluted and spread on M17lac plates with the appropriate antibiotic.
The inventors tested the activity of fragments of SEQ ID No1 using a strain deleted for the papR gene using the protocol described in part 8. The inventors thus synthesized different fragments of SEQ ID No1 in order to test their biological activity. Fragments were synthesized as below:
(§2) To test the biological activity of those fragments, peptides were added to a culture of a strain deleted for the papR gene at a final concentration of 1 μM, 1 hour after the dilution of the culture at an OD600 of 0.05 in a chemical defined medium (CDM). Transformation assays were performed with 100 μl of cells with 1 μg of plasmid and or chromosomal DNA.

Experiment [2] concerns S. thermophilus strain LMG18311. Kind of experiment: Transformation assay: peptide added to culture of strain LMG18311. The experiment is classed as cell-based. How it is done: as §1, §2
(§3) S. thermophilus strain LMG18311 is naturally poorly competent and strain CNRZ1066 is naturally not competent. However, complementation of both strains with a plasmid that overexpresses the papR gene makes them competent. […]

The subject of experiment [3] is S. thermophilus strain CNRZ1066. Kind of experiment: Transformation assay: peptide added to culture of strain CNRZ1066. It is filed as cell-based. Here is the method: as §1, §2, §3
Where [4] appears, read: Chromosomal transforming DNA 1 μg, peptide 1 μM, fragment comparison.
[5] abbreviates: Chromosomal transforming DNA, alkylation comparison.

Where no end group is shown, it is not given here. The star is where a group is joined. Cam = NC(=O)C*

For the substance “PYFAGCL (Fragment of SEQ ID N07) [SEQ ID N^o13]”, the “numbers of transformants obtained with 100 μl of competent cells” value (shortened to “numbers of transformants obtained”) in experiment [1] (setting [4]) was 0; in experiment [1] (Plasmid transforming DNA 1 μg, peptide 1 μM, fragment comparison), 0.
“LPYFAGCL (Fragment of SEQ ID N07) [SEQ ID N^o12]”: the “numbers of transformants obtained” value in experiment [1] (setting [4]) came out at 41.
Regarding “IAILPYFAGC*L (IAILPYFAGC(Cam)L; listed as Streptococcus thermophilus) [Alkylated SEQ ID N^o7]”, the “numbers of transformants obtained” value in experiment [1] (setting [5]) was 0; in experiment [1] (Plasmid transforming DNA, alkylation comparison), 2.
As for “IAILPYFAGCL (listed as Streptococcus thermophilus) [SEQ ID N^o7]”, the “competence after addition of the peptide to the culture” value in experiment [2] (LMG18311, result in words) is given as “renders them competent”; in experiment [3] (CNRZ1066, result in words), “renders them competent”. In addition, the “numbers of transformants obtained” value in experiment [2] (LMG18311, Chromosomal transforming DNA) was 477; in experiment [3] (CNRZ1066, Chromosomal transforming DNA) it was 0; in experiment [1] (setting [4]) it was 24; in experiment [1] (setting [5]), 35. The Competence entry in experiment [1] (listed as 7) is “YES”; in experiment [1] (listed as SEQ ID No7), “active competence peptide”.

(Values after patent US9340585B2, “Competence stimulating peptide” (INSTITUT NATIONAL DE LA RECHERCHE AGRONOMIQUE, priority 2009, dated 2016).)
